{"source": "patent US8247211B2", "about": "“Glycopeptide antibiotics” (American Cyanamid Company, priority 2001, dated 2012)", "assay_in_all_cases": "In vitro antibacterial evaluation: minimum inhibitory concentration (MIC), broth dilution method", "format_in_all_cases": "cell-based", "conditions_in_all_cases": "18 hours at 35° C.", "key": {"Enterococcus sp.": {"system": "Enterococcus sp.", "summary_of_the_method": "(§1)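 Broth dilution per NCCLS M7-A2 in Muller-Hinton II […], inoculum 5×10^5 CFU/mL, antibiotic tested over 64-0.06 μg/mL. MIC is taken as the lowest concentration that inhibits growth. Panel includes recent clinical isolates resistant to methicillin, penicillin and/or vancomycin.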"}, "Staphylococcus sp.": {"system": "Staphylococcus sp.", "summary_of_the_method": "as §1"}, "Escherichia coli": {"system": "Escherichia coli", "summary_of_the_method": "as §1"}, "Streptococcus sp.": {"system": "Streptococcus sp.", "summary_of_the_method": "as §1"}, "[1]": {"conditions": "Enterococcus faecalis (ATCC 29212)"}, "[2]": {"conditions": "Enterococcus faecalis (GC 2242)"}, "[3]": {"conditions": "Enterococcus faecalis (GC 4552)"}, "[4]": {"conditions": "Enterococcus faecalis (GC 4553)"}, "[5]": {"conditions": "Enterococcus faecalis (GC 4554)"}, "[6]": {"conditions": "Streptococcus agalactiae (GC 4564)"}, "[7]": {"conditions": "Streptococcus pneumoniae (GC 4565)"}, "[8]": {"conditions": "broth dilution, inoculum 5×10^5 CFU/mL"}}}
{"compound": "α-O-[(Butylamino)carbonyl]-cyclo[glycyl-β-methylphenylalanyl-O-(4-O-hexopyranosylhexopyranosyl)tyrosyl-3-(2-iminoimidazolidin-4-yl)seryl-3-(3-hexopyranosyl-2-iminoimidazolidin-4-yl)serylseryl] [Example 252]", "values": [{"measurement": "MIC Enterococcus avium (GC 4558)", "setting": "Enterococcus sp.; Enterococcus avium (GC 4558)", "value": ">64", "unit": "µg/mL"}, {"measurement": "MIC Enterococcus faecalis (ATCC 29212)", "setting": "Enterococcus sp.; [1]", "value": ">64", "unit": "µg/mL"}, {"measurement": "MIC Enterococcus faecalis (GC 2242)", "setting": "Enterococcus sp.; [2]", "value": ">64", "unit": "µg/mL"}, {"measurement": "MIC Enterococcus faecalis (GC 4552)", "setting": "Enterococcus sp.; [3]", "value": ">64", "unit": "µg/mL"}, {"measurement": "MIC Enterococcus faecalis (GC 4553)", "setting": "Enterococcus sp.; [4]", "value": ">64", "unit": "µg/mL"}, {"measurement": "MIC Enterococcus faecalis (GC 4554)", "setting": "Enterococcus sp.; [5]", "value": ">64", "unit": "µg/mL"}, {"measurement": "MIC Enterococcus faecium (GC 2243)", "setting": "Enterococcus sp.; Enterococcus faecium (GC 2243)", "value": ">64", "unit": "µg/mL"}, {"measurement": "MIC Enterococcus faecium (GC 4556)", "setting": "Enterococcus sp.; Enterococcus faecium (GC 4556)", "value": ">64", "unit": "µg/mL"}, {"measurement": "MIC Enterococcus faecium (GC 4557)", "setting": "Enterococcus sp.; Enterococcus faecium (GC 4557)", "value": ">64", "unit": "µg/mL"}, {"measurement": "MIC Coagulase Negative Staphylococcus (GC 4547)", "setting": "Staphylococcus sp.", "value": ">64", "unit": "µg/mL"}, {"measurement": "MIC Coagulase Negative Staphylococcus (GC 4548)", "setting": "Staphylococcus sp.", "value": ">64", "unit": "µg/mL"}, {"measurement": "MIC Coagulase Negative Staphylococcus (GC 4549)", "setting": "Staphylococcus sp.", "value": ">64", "unit": "µg/mL"}, {"measurement": "MIC Coagulase Negative Staphylococcus (GC 4551)", "setting": "Staphylococcus sp.", "value": ">64", "unit": "µg/mL"}, {"measurement": "MIC Coagulase Negative Staphylococcus (ID-3941)", "setting": "Staphylococcus sp.; Coagulase Negative Staphylococcus (ID-3941)", "value": ">64", "unit": "µg/mL"}, {"measurement": "MIC Staphylococcus aureus (ATCC 29213)", "setting": "Staphylococcus sp.", "value": ">64", "unit": "µg/mL"}, {"measurement": "MIC Staphylococcus aureus (GC 1131)", "setting": "Staphylococcus sp.", "value": ">64", "unit": "µg/mL"}, {"measurement": "MIC Staphylococcus aureus (GC 4541)", "setting": "Staphylococcus sp.", "value": ">64", "unit": "µg/mL"}, {"measurement": "MIC Staphylococcus aureus (GC 4542)", "setting": "Staphylococcus sp.", "value": ">64", "unit": "µg/mL"}, {"measurement": "MIC Staphylococcus aureus (GC 4544)", "setting": "Staphylococcus sp.", "value": ">64", "unit": "µg/mL"}, {"measurement": "MIC Staphylococcus aureus (GC 4545)", "setting": "Staphylococcus sp.", "value": ">64", "unit": "µg/mL"}, {"measurement": "MIC Staphylococcus aureus-SMITH (GC 4543)", "setting": "Staphylococcus sp.", "value": ">64", "unit": "µg/mL"}, {"measurement": "MIC Staphylococcus haemolyticus (GC 4546)", "setting": "Staphylococcus sp.", "value": ">64", "unit": "µg/mL"}, {"measurement": "MIC Escherichia coli (ATCC 25922)", "setting": "Escherichia coli; Escherichia coli (ATCC 25922)", "value": ">64", "unit": "µg/mL"}, {"measurement": "MIC Streptococcus agalactiae (GC 4564)", "setting": "Streptococcus sp.; [6]", "value": ">64", "unit": "µg/mL"}, {"measurement": "MIC Streptococcus pneumoniae (GC 4565)", "setting": "Streptococcus sp.; [7]", "value": ">64", "unit": "µg/mL"}, {"measurement": "MIC Streptococcus pyogenes (ID-3187)", "setting": "Streptococcus sp.; Streptococcus pyogenes (ID-3187)", "value": ">64", "unit": "µg/mL"}]}
{"compound": "CC(c1ccccc1)C1NC(=O)CNC(=O)C(CO)NC(=O)C(C(O)C2CNC(=N)N2C2OC(CO)C(O)C(O)C2O)NC(=O)C(C(O)C2CNC(=N)N2)NC(=O)C(Cc2ccc(OC3OC(CO)C(OC4OC(CO)C(O)C(OCc5ccc(OCc6ccccc6)cc5)C4O)C(O)C3O)cc2)NC1=O", "note": "(stereo not shown) [Example 231c]", "values": [{"measurement": "MIC Enterococcus avium (GC 4558)", "setting": "Enterococcus sp.; Enterococcus avium (GC 4558)", "value": 4, "unit": "µg/mL"}, {"measurement": "MIC Enterococcus faecalis (ATCC 29212)", "setting": "Enterococcus sp.; [1]", "value": 4, "unit": "µg/mL"}, {"measurement": "MIC Enterococcus faecalis (GC 2242)", "setting": "Enterococcus sp.; [2]", "value": 4, "unit": "µg/mL"}, {"measurement": "MIC Enterococcus faecalis (GC 2691)", "setting": "Enterococcus sp.; Enterococcus faecalis (GC 2691)", "value": 8, "unit": "µg/mL"}, {"measurement": "MIC Enterococcus faecalis (GC 3059)", "setting": "Enterococcus sp.; Enterococcus faecalis (GC 3059)", "value": 4, "unit": "µg/mL"}, {"measurement": "MIC Enterococcus faecalis (GC 4552)", "setting": "Enterococcus sp.; [3]", "value": 4, "unit": "µg/mL"}, {"measurement": "MIC Enterococcus faecalis (GC 4553)", "setting": "Enterococcus sp.; [4]", "value": 4, "unit": "µg/mL"}, {"measurement": "MIC Enterococcus faecalis (GC 4554)", "setting": "Enterococcus sp.; [5]", "value": 4, "unit": "µg/mL"}, {"measurement": "MIC Enterococcus faecalis (GC 6189)", "setting": "Enterococcus sp.; Enterococcus faecalis (GC 6189)", "value": 4, "unit": "µg/mL"}, {"measurement": "MIC Enterococcus faecium (GC 2243)", "setting": "Enterococcus sp.; Enterococcus faecium (GC 2243)", "value": 4, "unit": "µg/mL"}, {"measurement": "MIC Enterococcus faecium (GC 4556)", "setting": "Enterococcus sp.; Enterococcus faecium (GC 4556)", "value": 4, "unit": "µg/mL"}, {"measurement": "MIC Enterococcus faecium (GC 4557)", "setting": "Enterococcus sp.; Enterococcus faecium (GC 4557)", "value": 4, "unit": "µg/mL"}, {"measurement": "MIC Enterococcus avium (GC 4558)", "setting": "Enterococcus sp.; [8]", "value": 4, "unit": "µg/mL"}, {"measurement": "MIC Enterococcus faecalis (ATCC 29212)", "setting": "Enterococcus sp.; [8]", "value": 4, "unit": "µg/mL"}, {"measurement": "MIC Enterococcus faecalis (GC 2242)", "setting": "Enterococcus sp.; [8]", "value": 4, "unit": "µg/mL"}, {"measurement": "MIC Enterococcus faecalis (GC 2691)", "setting": "Enterococcus sp.; [8]", "value": 8, "unit": "µg/mL"}, {"measurement": "MIC Enterococcus faecalis (GC 3059)", "setting": "Enterococcus sp.; [8]", "value": 4, "unit": "µg/mL"}, {"measurement": "MIC Enterococcus faecalis (GC 4552)", "setting": "Enterococcus sp.; [8]", "value": 4, "unit": "µg/mL"}, {"measurement": "MIC Enterococcus faecalis (GC 4553)", "setting": "Enterococcus sp.; [8]", "value": 4, "unit": "µg/mL"}, {"measurement": "MIC Enterococcus faecalis (GC 4554)", "setting": "Enterococcus sp.; [8]", "value": 4, "unit": "µg/mL"}, {"measurement": "MIC Enterococcus faecalis (GC 6189)", "setting": "Enterococcus sp.; [8]", "value": 4, "unit": "µg/mL"}, {"measurement": "MIC Enterococcus faecium (GC 2243)", "setting": "Enterococcus sp.; [8]", "value": 4, "unit": "µg/mL"}, {"measurement": "MIC Enterococcus faecium (GC 4556)", "setting": "Enterococcus sp.; [8]", "value": 4, "unit": "µg/mL"}, {"measurement": "MIC Enterococcus faecium (GC 4557)", "setting": "Enterococcus sp.; [8]", "value": 4, "unit": "µg/mL"}, {"measurement": "MIC Coagulase Negative Staphylococcus (GC 4547)", "setting": "Staphylococcus sp.", "value": 2, "unit": "µg/mL"}, {"measurement": "MIC Coagulase Negative Staphylococcus (GC 4548)", "setting": "Staphylococcus sp.", "value": 0.5, "unit": "µg/mL"}, {"measurement": "MIC Coagulase Negative Staphylococcus (GC 4549)", "setting": "Staphylococcus sp.", "value": 0.5, "unit": "µg/mL"}, {"measurement": "MIC Coagulase Negative Staphylococcus (GC 4551)", "setting": "Staphylococcus sp.", "value": 1, "unit": "µg/mL"}, {"measurement": "MIC Coagulase Negative Staphylococcus (GC 6257)", "setting": "Staphylococcus sp.; Coagulase Negative Staphylococcus (GC 6257)", "value": 0.5, "unit": "µg/mL"}, {"measurement": "MIC Staphylococcus aureus (ATCC 29213)", "setting": "Staphylococcus sp.", "value": 1, "unit": "µg/mL"}, {"measurement": "MIC Staphylococcus aureus (GC 1131)", "setting": "Staphylococcus sp.", "value": 2, "unit": "µg/mL"}, {"measurement": "MIC Staphylococcus aureus (GC 3051)", "setting": "Staphylococcus sp.; Staphylococcus aureus (GC 3051)", "value": 2, "unit": "µg/mL"}, {"measurement": "MIC Staphylococcus aureus (GC 3053)", "setting": "Staphylococcus sp.; Staphylococcus aureus (GC 3053)", "value": 2, "unit": "µg/mL"}, {"measurement": "MIC Staphylococcus aureus (GC 4541)", "setting": "Staphylococcus sp.", "value": 2, "unit": "µg/mL"}, {"measurement": "MIC Staphylococcus aureus (GC 4542)", "setting": "Staphylococcus sp.", "value": 2, "unit": "µg/mL"}, {"measurement": "MIC Staphylococcus aureus (GC 4544)", "setting": "Staphylococcus sp.", "value": 2, "unit": "µg/mL"}, {"measurement": "MIC Staphylococcus aureus (GC 4545)", "setting": "Staphylococcus sp.", "value": 2, "unit": "µg/mL"}, {"measurement": "MIC Staphylococcus aureus-SMITH (GC 4543)", "setting": "Staphylococcus sp.", "value": 1, "unit": "µg/mL"}, {"measurement": "MIC Staphylococcus haemolyticus (GC 4546)", "setting": "Staphylococcus sp.", "value": 1, "unit": "µg/mL"}, {"measurement": "MIC Escherichia coli (GC 4560)", "setting": "Escherichia coli; Escherichia coli (GC 4560)", "value": 2, "unit": "µg/mL"}, {"measurement": "MIC Streptococcus agalactiae (GC 4564)", "setting": "Streptococcus sp.; [6]", "value": "<0.12", "unit": "µg/mL"}, {"measurement": "MIC Streptococcus pneumoniae (ATCC 6301)", "setting": "Streptococcus sp.; Streptococcus pneumoniae (ATCC 6301)", "value": "<0.12", "unit": "µg/mL"}, {"measurement": "MIC Streptococcus pneumoniae (GC 1894)", "setting": "Streptococcus sp.; Streptococcus pneumoniae (GC 1894)", "value": "<0.12", "unit": "µg/mL"}, {"measurement": "MIC Streptococcus pneumoniae (GC 4565)", "setting": "Streptococcus sp.; [7]", "value": "<0.12", "unit": "µg/mL"}, {"measurement": "MIC Streptococcus pyogenes (GC 4563)", "setting": "Streptococcus sp.; Streptococcus pyogenes (GC 4563)", "value": "<0.12", "unit": "µg/mL"}, {"measurement": "MIC Streptococcus agalactiae (GC 4564)", "setting": "Streptococcus sp.; [8]", "value": "<0.12", "unit": "µg/mL"}, {"measurement": "MIC Streptococcus pneumoniae (ATCC 6301)", "setting": "Streptococcus sp.; [8]", "value": "<0.12", "unit": "µg/mL"}, {"measurement": "MIC Streptococcus pneumoniae (GC 1894)", "setting": "Streptococcus sp.; [8]", "value": "<0.12", "unit": "µg/mL"}, {"measurement": "MIC Streptococcus pneumoniae (GC 4565)", "setting": "Streptococcus sp.; [8]", "value": "<0.12", "unit": "µg/mL"}, {"measurement": "MIC Streptococcus pyogenes (GC 4563)", "setting": "Streptococcus sp.; [8]", "value": "<0.12", "unit": "µg/mL"}]}
